Laboratory results from patent publication US11400132B2 (NOVALIQ GMBH, priority 2016, dated 2022).

Test: Water solubility / residual water in 1-perfluorobutyl-pentane
Type: physicochemical
Details: based on weight of 1-perfluorobutylpentane
Excerpt: The predominant contribution to residual water content in the composition can be attributed to water sorption or association with ciclosporin (e.g. not limited to, but for example derived from manufacturing process, or its transport and storage).
The 1-perfluorobutyl-pentane as featured in any of the compositions or methods described herein is preferably essentially free of water. In such case, the presence of residual water in the composition according to the invention is derived from the ciclosporin or optionally, if present, one or more excipients that is functionally not a co-solvent.

For `CCCCCC(F)(F)C(F)(F)C(F)(F)C(F)(F)F` [F4H5, 1-perfluorobutyl-pentane], which “water solubility in 1-perfluorobutylpentane” value is on record?
Its value is “less than 1.20×10^−5 wt %”.
